{
  "source": "patent US3947569A",
  "about": "“Process for preparing the releasing hormone of luteinizing hormone (LH) and of follicle stimulating hormone (FSH), salts and compositions thereof, and intermediates therefor” (American Home Products Corporation, priority 1974, dated 1976)",
  "key": {"[1]": {"test_system": "LH and FSH release", "test": "bioassays / biological equivalence to the natural hormone (not specified further)"}, "[2]": {"test_system": "ovulation", "test": "induction of ovulation in the hamster (Arimura et al., Science 174, 511)", "type": "in vivo", "source_text": "(§1) Exp. Biol. Med., 128, 807 (1968)."}, "[3]": {"test_system": "ovulation", "test": "modification of the ovulation induction assay in the rat (Arimura et al., Endocrinology 80, 515)", "type": "in vivo", "source_text": "as §1"}, "[4]": {"test_system": "LH and FSH release", "test": "LH- and FSH-releasing activity tested in the radioimmunoassay of Niswender et al.", "type": "in vivo", "settings": "acid addition salt", "source_text": "as §1"}},
  "data": [
    {"compound": "5-Oxo-L-Prolyl-L-Histidyl-L-Tryptophyl-L-Seryl-L-Tyrosylglycyl-L-Leucyl-L-Arginyl-L-Prolylglycinamide (I) Zinc Complex [Example 19]", "values": [
      {"measurement": "pharmacological / biological equivalence", "setting": "[1]; compared with the decapeptide or the natural hormone", "value": "pharmacologically equivalent to the decapeptide"}
    ]},
    {"compound": "CC(C)C[C@H](NC(=O)CNC(=O)[C@H](Cc1ccc(O)cc1)NC(=O)[C@H](CO)NC(=O)[C@H](Cc1c[nH]c2ccccc12)NC(=O)[C@H](Cc1c[nH]cn1)NC(=O)[C@@H]1CCC(=O)N1)C(=O)N[C@@H](CCCNC(=N)N)C(=O)N1CCC[C@H]1C(=O)NCC(N)=O", "note": "[I, 5-oxo-L-prolyl-L-histidyl-L-tryptophyl-L-seryl-L-tyrosylglycyl-L-leucyl-L-arginyl-L-prolylglycinamide]", "values": [
      {"measurement": "activity in induction of ovulation compared with the natural hormone", "setting": "[2]; hamster", "value": "equally active"},
      {"measurement": "time to ovulation following administration", "setting": "[2]; rodents such as rats or hamsters: hamster", "value": "≤ 18", "unit": "h"},
      {"measurement": "activity in induction of ovulation compared with the natural hormone", "setting": "[3]; rat", "value": "equally active"},
      {"measurement": "time to ovulation following administration", "setting": "[3]; rodents such as rats or hamsters: rat", "value": "≤ 18", "unit": "h"},
      {"measurement": "potency in bioassays compared with the natural product", "setting": "[1]; hydrochloride salt", "value": "as potent as the latter"},
      {"measurement": "LH- and FSH-releasing activity compared with the natural hormone", "setting": "[4]", "value": "as active as the natural hormone"}
    ]}
  ]
}
